pIC50: −log10 of the molar value.
Assays:
MV-4-11 cells = assay: Anti-proliferative activity against MV-4-11 cells (three-day cell viability chemiluminescence); type: cell-based; conditions: Homo sapiens, MV4-11, 72 h, MV-4-11 human monocytic leukemia cells, three days of exposure
Experimental: This study utilized a cell proliferation assay to analyze the cytotoxicity of MV-4-11 human monocytic leukemia cells after three days of exposure to NMT1 inhibitors. The MV-4-11 cell line was purchased from Nanjing Cobuilder Biotechnology Co., Ltd., and cultured in IMDM medium (Viva cell) in an incubator (Thermo) at 37 °C with 5% CO2. In this experiment, NMT1 inhibitors were dissolved in DMSO to obtain 600 µM stock solutions. Dose-response solutions were prepared with a top endpoint compound concentration of 3 µM, followed by three-fold serial dilutions in DMSO, totaling eight data points. The final concentration of DMSO was 0.5%.
MV-4-11 cells were seeded into a white 96-well plate, 80 µL of cell suspension per well, containing 6000 MV-4-11 cells. The cell plate was placed in the CO2 incubator for overnight culture. Then, 20 µL of NMT1 inhibitor solutions at different concentrations were added to the wells. The 96-well plate was placed back into the incubator for three days. Another cell plate was prepared, and the signal was read on the day of drug addition to serve as the maximum value (Max value in the equation below) for data analysis. To this cell plate, 25 µL of cell viability chemiluminescence detection reagent was added per well, followed by incubation at room temperature for 10 minutes to stabilize the luminescence signal. A multi-label analyzer was used for reading.
The raw data were converted into inhibition rates using the equation (Sample - Min) / (Max - Min) * 100%. The IC50 values were then determined by fitting a four-parameter curve (using the "log(inhibitor) vs. response - Variable slope" model in GraphPad Prism). Min: wells treated with 0.5% DMSO; Max: Day 0 wells. Table 1 provides the inhibitory activity of the compounds of the invention on MV-4-11 cell proliferation. Table 1: Compound Inhibitory Activity against NMT1 Enzyme (IC50) and Anti-proliferative Activity against MV-4-11 Cells (IC50)

NMT1 enzyme = target: T1, NMT1 enzyme (Homo sapiens, UniProt P30419); assay: Inhibitory activity on NMT1 enzyme catalysis (fluorescence intensity, CPM probe); type: biochemical; conditions: 6 nM NMT1 enzyme, 1.25 µM myristoyl-CoA, 20 µM HSPP60 SRC peptide, 45 minutes at 25 °C
T1 sequence (P30419 1-496): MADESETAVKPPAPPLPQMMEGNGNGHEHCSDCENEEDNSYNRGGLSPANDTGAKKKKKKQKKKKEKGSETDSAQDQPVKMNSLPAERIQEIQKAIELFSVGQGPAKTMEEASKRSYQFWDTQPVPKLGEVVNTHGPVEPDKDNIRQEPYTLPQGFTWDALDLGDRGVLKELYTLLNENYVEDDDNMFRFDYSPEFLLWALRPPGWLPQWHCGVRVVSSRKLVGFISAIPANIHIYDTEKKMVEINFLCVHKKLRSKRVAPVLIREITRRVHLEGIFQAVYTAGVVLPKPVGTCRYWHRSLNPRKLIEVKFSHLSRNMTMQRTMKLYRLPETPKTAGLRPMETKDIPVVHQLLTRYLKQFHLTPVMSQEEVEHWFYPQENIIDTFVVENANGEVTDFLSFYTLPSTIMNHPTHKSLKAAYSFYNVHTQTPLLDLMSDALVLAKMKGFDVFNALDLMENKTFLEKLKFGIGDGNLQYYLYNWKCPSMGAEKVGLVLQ
Experimental: This study evaluated the ability of the compounds of the invention to inhibit NMT1 catalytic activity in vitro. The experiment used a FI (Fluorescence Intensity) analysis method, characterizing NMT1 inhibitors under conditions of 1.25 µM myristoyl-CoA (Lithium salt, Sigma, M4414). In this experiment, a synthesized peptide with the sequence H-Gly-Ser-Asn-Lys-Ser-Lys-Pro-Lys-NH2, HSPP60SRC (Nanjing Peptide Industry, NJP23953), was used as the reaction substrate. The final concentration of the NMT1 enzyme was 6 nM, the final concentration of CPM (Reactive thiol fluorescence probe, Invitrogen, D346) was 1 µM, the final concentration of HSPP60 SRC was 20 µM, and the final concentration of DMSO was 0.5%.
Compounds were dissolved in DMSO to obtain 10 mM stock solutions. Dose-response solutions were prepared with a top endpoint compound concentration of 3 mM, followed by three-fold serial dilutions in DMSO, totaling ten data points. Using an ECHO acoustic liquid handler (BECKMAN, ECHO 655 system), 0.05 µL of the diluted compound solutions was transferred to a 384-well assay plate (Corning, CLS4514). Then, 2.5 µL of the NMT1 enzyme working solution was added to the 384-well assay plate, followed by incubation at 25 °C for 10 minutes. Subsequently, 5 µL of the CPM and myristoyl-CoA working solution was added, the plate was centrifuged at 1000 rpm for 1 minute, and then 2.5 µL of the HSPP60 SRC working solution was added to initiate the reaction. The reaction was incubated at 25 °C for 45 minutes. The FI signal ([…]; ex: 405 nm) was detected using an HTS high-throughput screening multifunctional microplate reader (BMG, PHERA star FSX).
The inhibition rate of the compounds on NMT1 enzyme catalytic activity was calculated using the following formula: Inhibition Percentage (%) = 100 * (Mean of DMSO group - Mean of Compound group) / (Mean of DMSO group - Mean of Blank control group). The IC50 curve of the compounds was fitted using the software XLfit 5.5.0 according to the nonlinear regression equation. Table 1 provides the inhibitory activity of the compounds of the invention on NMT1 enzyme catalysis.

| pIC50 (MV-4-11 cells) | pIC50 (NMT1 enzyme) | Structure (SMILES) |
| --- | --- | --- |
| 7.77 | 8.75 | Cc1c(CCOc2cc(Cl)ccc2-c2ccn3ncc(CN(C)C)c3c2)c(C(=O)N(C)C)nn1C [Compound 1, 4-{2-[(5-chloro-2-{3-[(dimethylamino)methyl]-pyrazolo [1,5-a]pyridin-5-yl}phenyl)oxy]ethyl}-1,5,N,N-tetramethylpyrazole-3-carboxamide] |
| 7.63 | 8.67 | CNCc1cnn2ccc(-c3ccc(Cl)cc3OCCc3c(C(=O)N(C)C)nn(C)c3C)cc12 [Compound 2, 4-{2-[(5-chloro-2-{3-[(methylamino)methyl]pyrazolo[1,5-a]pyridin-5-yl}phenyl)oxy]ethyl}-1,5,N,N-tetramethyl pyrazole-3-carboxamide] |
| 7.39 | 8.46 | Cc1c(CCOc2cc(Cl)ccc2-c2ccn3ncc(CN)c3c2)c(C(=O)N(C)C)nn1C [Compound 3, 4-[2-({2-[3-(aminomethyl)pyrazolo[1,5-a]pyridin-5-yl]-5-chlorophenyl}oxy)ethyl]-1,5,N,N-tetramethylpyrazole-3-carboxamide] |
| 7.94 | 8.78 | Cc1c(CCOc2cc(F)ccc2-c2ccn3ncc(CN(C)C)c3c2)c(C(=O)N(C)C)nn1C [Compound 4, 4-{2-[(2-{3-[(dimethylamino)methyl]pyrazolo[1,5-a]pyridin-5-yl}-5-fluorophenyl)oxy]ethyl} -1 ,5,N,N-tetrameth ylpyrazole-3-carboxamide] |
| 7.93 | 8.76 | Cc1c(CCOc2c(F)cccc2-c2ccn3ncc(CN(C)C)c3c2)c(C(=O)N(C)C)nn1C [Compound 5, 4-{2-[(6-{3-[(dimethylamino)methyl]pyrazolo[1,5-a]pyridin-5-yl}-2-fluorophenyl)oxy]ethyl} -1 ,5,N,N-tetrameth ylpyrazole-3-carboxamide] |
|  | 8.77 | CNCc1cnn2ccc(-c3ccc(F)c(F)c3OCCc3c(C(C)(C)O)nn(C)c3C)cc12 [Compound 29, 2-(4-{2-[(2,3-difluoro-6-{3-[(methylamino)methyl]-pyrazolo[1,5-a]pyridin-5-yl}phenyl)oxy]ethyl}-1,5-dimethylpyrazol-3-yl)propan-2-ol] |
|  | 8.79 | CNCc1cnn2ccc(-c3ccc(F)c(F)c3OCCc3c(C(O)C(C)(C)C)nn(C)c3C)cc12 (stereo not shown) [Compound 30, 1-(4-{2-[(2,3-difluoro-6-{3-[(methylamino)methyl]-pyrazolo[1,5-a]pyridin-5-yl}phenyl)oxy]ethyl}-1,5-dimethylpyrazol-3-yl)-2,2-dimethylpr opan-1-ol] |
|  | 8.74 | CNCc1cnn2ccc(-c3ccc(F)c(F)c3OCCc3c(C(C)O)nn(C)c3C)cc12 (stereo not shown) [Compound 31, 1-(4-{2-[(2,3-difluoro-6-{3-[(methylamino)methyl]-pyrazolo[1,5-a]pyridin-5-yl}phenyl)oxy]ethyl}-1,5-dimethylpyrazol-3-yl)ethan-1-ol] |
|  | 8.77 | CNCc1cnn2ccc(-c3ccc(F)c(F)c3OCCc3c(C(O)C(C)C)nn(C)c3C)cc12 (stereo not shown) [Compound 32, 1-(4-{2-[(2,3-difluoro-6-{3-[(methylamino)methyl]pyrazolo[1,5-a]pyridin-5-yl}phenyl)oxy]ethyl}-1,5-dimethylpyrazol-3-yl)-2-methylpropan-1-ol] |
|  | 8.71 | CNCc1cnn2ccc(-c3ccc(F)cc3OCCc3c(C(O)C(C)(C)C)nn(C)c3C)cc12 (stereo not shown) [Compound 34, 1-(4-{2-[(5-fluoro-2-{3-[(methylamino)methyl]pyrazolo[1,5-a]pyridin-5-yl}phenyl)oxy]ethyl}-1,5-dimethylpyrazol-3-yl)-2,2-dimethylpropan-1-ol] |
|  | 8.71 | CNCc1cnn2ccc(-c3ccc(F)cc3OCCc3c(C(O)C(C)C)nn(C)c3C)cc12 (stereo not shown) [Compound 36, 1-(4-{2-[(5-fluoro-2-{3-[(methylamino)methyl]pyrazolo[1,5-a]pyridin-5-yl}phenyl)oxy]ethyl}-1,5-dimethylpyrazol-3-yl)-2-methylpropan-1-ol] |
